Values after ≈ are worked out from the molar mass of the structure shown.
Tests used:
Type in all cases: cell-based
S. aureus ATCC 25923 = test: MIC, broth microdilution; conditions: Staphylococcus aureus, ATCC25923; S. aureus ATCC 25923; read-out: MIC
Method: (§1) Bacteria were cultured in cation-adjusted Mueller Hinton Broth (for strains in Tables 1 and 4) or Brain Heart Infusion broth (for Enterococcus faecium) or Tryptic Soy Broth (all other bacteria) in a 96-well plate at 37° C. for at least 20 hours. The MIC was classified as the lowest concentration where no visual growth of bacteria was observed. The minimum bactericidal concentration (MBC) was tested by spotting 4 μL from wells with no growth onto Tryptic Soy Agar (TSA) plates. Plates were incubated at 37° C. for at least 18 hours before recording the MBC.

[1] = tested on: VRE (E. faecalis) ATCC 51575; test: MIC, broth microdilution; conditions: VRE (E. faecalis) ATCC 51575; read-out: MIC
Method: as §1

E. faecalis ATCC 29212 = test: MIC, broth microdilution; conditions: Enterococcus faecalis, ATCC29212; E. faecalis ATCC 29212; read-out: MIC
Method: as §1

MRSA ATCC 33592 = test: MIC, broth microdilution; conditions: Staphylococcus aureus; MRSA ATCC 33592; read-out: MIC
Method: as §1

[2] = tested on: L. monocytogenes ATCC 19115; test: MIC, broth microdilution; conditions: Listeria monocytogenes, ATCC19115; L. monocytogenes ATCC 19115; read-out: MIC
Method: as §1

S. aureus [3] = test: Screening of compounds for growth inhibition of S. aureus at 16 μg/mL (OD600); conditions: compound at 16 μg/mL, 24 hours, compared to DMSO control
Method: Library compounds and analogs of F6 were dissolved in DMSO at 10 mg/mL. S. aureus was cultured in Mueller Hinton Broth to early exponential phase at which point culture aliquots were incubated with compounds at 16 μg/mL or DMSO in duplicates. The culture was continued at 37° C. for 24 hours. Aliquots (100 μL) of the cultures were dispensed into clear 96 well microtiter plates and OD600 was recorded. Percent normalized OD600 was obtained by using the equation [formula] wherein for a given compound, X is the OD600 of culture with the compound, Xo is that of media only and XT is the OD600 of the DMSO control.

[4] = tested on: C. difficile NR-13432 (isolate 6); test: Clostridium difficile inhibition analysis; conditions: for Antibacterial activity: Table 7, C. difficile NR-13432 (isolate 6); for Clostridium difficile inhibition: Table 6, I6
[5] = tested on: C. difficile NR-32883 (P2); test: Clostridium difficile inhibition analysis; conditions: for Antibacterial activity: Table 7, C. difficile NR-32883 (P2); for Clostridium difficile inhibition: Table 6, P2
[6] = tested on: C. difficile NR-32891 (P13); test: Clostridium difficile inhibition analysis; conditions: for Antibacterial activity: Table 7, C. difficile NR-32891 (P13); for Clostridium difficile inhibition: Table 6, P13
[7] = tested on: C. difficile NR-13435 (isolate 9); test: Clostridium difficile inhibition analysis; conditions: for Antibacterial activity: Table 7, C. difficile NR-13435 (isolate 9); for Clostridium difficile inhibition: Table 6, I9
[8] = tested on: C. difficile NR-32895 (P19); test: Clostridium difficile inhibition analysis; conditions: for Antibacterial activity: Table 7, C. difficile NR-32895 (P19); for Clostridium difficile inhibition: Table 6, P19
[9] = tested on: C. difficile NR-32904 (P30); test: Clostridium difficile inhibition analysis; conditions: for Antibacterial activity: Table 7, C. difficile NR-32904 (P30); for Clostridium difficile inhibition: Table 6, P30
[10] = tested on: Clostridium difficile ATCC BAA 1801; test: Clostridium difficile inhibition analysis; conditions: for Antibacterial activity: Table 7, C. difficile ATCC BAA 1801; for Clostridium difficile inhibition: Table 6, ATCC BAA 1801
[11] = tested on: Clostridium difficile ATCC 43255; test: Clostridium difficile inhibition analysis; conditions: for Clostridium difficile inhibition: Table 6, ATCC 43255
S. aureus [12] = test: MIC (Table 5, strain not given); conditions: Staphylococcus aureus; S. aureus (Table 5)
Method: as §1

[13] = tested on: Clostridium difficile ATCC 9689; test: Clostridium difficile inhibition analysis; conditions: Table 6, ATCC 9689
VRE = test: MIC (Table 5, strain not given); conditions: Enterococcus; VRE (Table 5)
Method: as §1

E. faecalis = test: MIC (Table 5, strain not given); conditions: Enterococcus faecalis; E. faecalis (Table 5)
Method: as §1

CN(C)S(=O)(=O)c1ccc(C(=O)Nc2nnc(-c3ccc(F)cc3)o2)cc1 [Compound F3]
MIC (S. aureus ATCC 25923): 16 µg/mL (≈ 41 µM)
MIC [1]: 32 µg/mL (≈ 82 µM)
MIC (E. faecalis ATCC 29212): 32 µg/mL (≈ 82 µM)
MIC (MRSA ATCC 33592): 16 µg/mL (≈ 41 µM)
MIC [2]: 32 µg/mL (≈ 82 µM)
inhibition of growth of S. aureus (S. aureus [3]): significantly inhibited the growth

O=C(Nc1nnc(-c2cccs2)s1)c1ccc(S(=O)(=O)N2CCCCC2)cc1 [Compound F4]
MIC (S. aureus ATCC 25923): 16 µg/mL (≈ 36.8 µM)
MIC [1]: 32 µg/mL (≈ 73.6 µM)
MIC (E. faecalis ATCC 29212): 32 µg/mL (≈ 73.6 µM)
MIC (MRSA ATCC 33592): 16 µg/mL (≈ 36.8 µM)
MIC [2]: 16 µg/mL (≈ 36.8 µM)
inhibition of growth of S. aureus (S. aureus [3]): significantly inhibited the growth

CC1CCCCN1S(=O)(=O)c1ccc(C(=O)Nc2nnc(-c3cccs3)o2)cc1 (stereo not drawn) [Compound F5]
MIC (S. aureus ATCC 25923): 8 µg/mL (≈ 18.5 µM)
MIC [1]: 16 µg/mL (≈ 37 µM)
MIC (E. faecalis ATCC 29212): 16 µg/mL (≈ 37 µM)
MIC (MRSA ATCC 33592): 8 µg/mL (≈ 18.5 µM)
MIC [2]: 16 µg/mL (≈ 37 µM)
inhibition of growth of S. aureus (S. aureus [3]): significantly inhibited the growth

CC1CC(C)CN(S(=O)(=O)c2ccc(C(=O)Nc3nnc(-c4ccc(Cl)cc4)o3)cc2)C1 (stereo not drawn) [Compound F6-5, N-(5-(4-Chlorophenyl)-1,3,4-oxadiazol-2-yl)-4-((3,5-dimethylpiperidin-1-yl)sulfonyl)benzamide]
MIC (S. aureus ATCC 25923): 2 µg/mL (≈ 4.21 µM)
MIC [1]: 2 µg/mL (≈ 4.21 µM)
MIC (E. faecalis ATCC 29212): 4 µg/mL (≈ 8.42 µM)
MIC (MRSA ATCC 33592): 1 µg/mL (≈ 2.11 µM)
MIC [2]: 2 µg/mL (≈ 4.21 µM)
inhibition of growth of S. aureus (S. aureus [3]): active

COc1cccc(-c2nnc(NC(=O)c3ccc(S(=O)(=O)N(C)CC4CCCO4)cc3)o2)c1 (stereo not drawn) [Compound G8]
MIC (S. aureus ATCC 25923): 32 µg/mL (≈ 67.7 µM)
MIC [1]: 32 µg/mL (≈ 67.7 µM)
MIC (E. faecalis ATCC 29212): 32 µg/mL (≈ 67.7 µM)
MIC (MRSA ATCC 33592): 32 µg/mL (≈ 67.7 µM)
MIC [2]: 32 µg/mL (≈ 67.7 µM)
inhibition of growth of S. aureus (S. aureus [3]): significantly inhibited the growth

CC1CC(C)CN(S(=O)(=O)c2cncc(C(=O)Nc3nnc(-c4ccc(C(F)(F)F)cc4)o3)c2)C1 (stereo not drawn) [HSGN 216, 5-((3,5-dimethylpiperidin-1-yl)sulfonyl)-N-(5-(4-(trifluoromethyl)phenyl)-1,3,4-oxadiazol-2-yl)nicotinamide]
Antibacterial activity [4]: 0.125
Antibacterial activity [5]: 0.06
Antibacterial activity [6]: 0.5
Antibacterial activity [7]: 0.125
Antibacterial activity [8]: 0.125
Antibacterial activity [9]: 0.5
Antibacterial activity [10]: 0.25

O=C(Nc1nnc(-c2ccc(C(F)(F)F)cc2)o1)c1ccc(S(=O)(=O)Nc2ccccc2)cc1 [HSGN-118, 4-(N-phenylsulfamoyl)-N-(5-(4-(trifluoromethyl)phenyl)-1,3,4-oxadiazol-2-yl)benzamide]
Clostridium difficile inhibition [4]: 0.5
Clostridium difficile inhibition [5]: 0.5
MIC (MRSA ATCC 33592): 4 µg/mL (≈ 8.19 µM)
Clostridium difficile inhibition [6]: 1
Clostridium difficile inhibition [7]: 0.5
Clostridium difficile inhibition [8]: 0.5
Clostridium difficile inhibition [11]: 0.5
MIC (S. aureus [12]): 4 µg/mL (≈ 8.19 µM)
Clostridium difficile inhibition [9]: 0.5
Clostridium difficile inhibition [13]: 0.5
Clostridium difficile inhibition [10]: 0.5

C[C@@H]1C[C@H](C)CN(S(=O)(=O)c2ccc(C(=O)Nc3nnc(-c4cccc(C(F)(F)F)c4)o3)cc2)C1 [HSGN-122, 4-(((3S,5R)-3,5-dimethylpiperidin-1-yl)sulfonyl)-N-(5-(3-(trifluoromethyl)phenyl)-1,3,4-oxadiazol-2-yl)benzamide]
MIC (MRSA ATCC 33592): 1 µg/mL (≈ 1.97 µM)
MIC (VRE): 8 µg/mL (≈ 15.7 µM)
MIC (E. faecalis): 4 µg/mL (≈ 7.87 µM)
MIC (S. aureus [12]): 2 µg/mL (≈ 3.93 µM)

Cc1nc(C)c(-c2nnc(NC(=O)c3ccc(S(=O)(=O)N4C[C@H](C)C[C@H](C)C4)cc3)o2)s1 [HSGN-123, 4-(((3S,5R)-3,5-dimethylpiperidin-1-yl)sulfonyl)-N-(5-(2,4-dimethylthiazol-5-yl)-1,3,4-oxadiazol-2-yl)benzamide]
MIC (MRSA ATCC 33592): 8 µg/mL (≈ 16.8 µM)
MIC (VRE): 64 µg/mL (≈ 135 µM)
MIC (E. faecalis): 32 µg/mL (≈ 67.3 µM)
MIC (S. aureus [12]): 16 µg/mL (≈ 33.6 µM)

C[C@@H]1C[C@H](C)CN(S(=O)(=O)c2ccc(C(=O)Nc3nnc(-c4ccnn4C)o3)cc2)C1 [HSGN-124, 4-(((3S,5R)-3,5-dimethylpiperidin-1-yl)sulfonyl)-N-(5-(1-methyl-1H-pyrazol-5-yl)-1,3,4-oxadiazol-2-yl)benzamide]
Clostridium difficile inhibition [4]: 0.5
Clostridium difficile inhibition [5]: 0.5
MIC (MRSA ATCC 33592): 4 µg/mL (≈ 9 µM)
Clostridium difficile inhibition [6]: 2
Clostridium difficile inhibition [7]: 0.5
Clostridium difficile inhibition [8]: 1
Clostridium difficile inhibition [11]: 1
MIC (VRE): 128 µg/mL (≈ 288 µM)
MIC (E. faecalis): 16 µg/mL (≈ 36 µM)
MIC (S. aureus [12]): 8 µg/mL (≈ 18 µM)
Clostridium difficile inhibition [9]: 2
Clostridium difficile inhibition [13]: 1
Clostridium difficile inhibition [10]: 2

CN(c1ccccc1)S(=O)(=O)c1ccc(C(=O)Nc2nnc(-c3ccc(C(F)(F)F)cc3)o2)cc1 [HSGN-161, 4-(N-methyl-N-phenylsulfamoyl)-N-(5-(4-(trifluoromethyl)phenyl)-1,3,4-oxadiazol-2-yl)benzamide]
Clostridium difficile inhibition [4]: 0.5
Clostridium difficile inhibition [5]: 0.5
MIC (MRSA ATCC 33592): 0.25 µg/mL (≈ 0.498 µM)
Clostridium difficile inhibition [6]: 0.5
Clostridium difficile inhibition [7]: 0.5
Clostridium difficile inhibition [8]: 0.5
Clostridium difficile inhibition [11]: 0.5
MIC (S. aureus [12]): 0.25 µg/mL (≈ 0.498 µM)
Clostridium difficile inhibition [9]: 0.5
Clostridium difficile inhibition [13]: 0.5
Clostridium difficile inhibition [10]: 1

C[C@@H]1C[C@H](C)CN(S(=O)(=O)c2csc(C(=O)Nc3nnc(-c4ccc(C(F)(F)F)cc4)o3)c2)C1 [HSGN-193, 4-(((3S,5R)-3,5-dimethylpiperidin-1-yl)sulfonyl)-N-(5-(4-(trifluoromethyl)phenyl)-1,3,4-oxadiazol-2-yl)thiophene-2-carboxamide]
Antibacterial activity [4]: 0.125
Antibacterial activity [5]: 0.125
MIC (MRSA ATCC 33592): 1 µg/mL (≈ 1.94 µM)
Antibacterial activity [6]: 0.5
Antibacterial activity [7]: 0.125
Antibacterial activity [8]: 0.25
Antibacterial activity ([11]; Table 7, C. difficile ATCC 43255): 0.25
MIC (S. aureus [12]): 0.5 µg/mL (≈ 0.972 µM)
Antibacterial activity [9]: 0.5
Antibacterial activity [10]: 0.25

Source: patent US11731964B2, “Benzamide antibacterial agents” (Purdue Research Foundation, priority 2018, dated 2023)
